This passage reports IC50 and EC50 results from patent publication US11447504B2, “Macrocyclic chlorine substituted indole derivatives” (Bayer Aktiengesellschaft, priority 2017, dated 2022).

The subject of data set [1] is SUDHL5. Briefly: Antiproliferation assay 7, SUDHL5. It is filed as cell-based. The following applies: SUDHL5 cells, CellTiter-Glo, read-out: Antiproli SUDHL5 IC50 (median). The protocol: (§1) Assessment of the Anti-Proliferative Effect of Compounds in Different Cell Lines
(§2) The impact of compounds on the proliferation of different cell lines was assessed using the CellTiter-Glo® Luminescent Cell Viability reagent from Promega (G7573).
(§3) In parallel, cells were plated in a reference (day 0) plate for time zero determination.
(§4) Rim wells were excluded. The cells were incubated for 72 hours in a humidified incubator at 37° C. The day 0 plate was measured by adding 30 μL/well of CTG solution (CellTiter-Glo® Luminescent Cell Viability reagent, Promega G7573) to time zero wells in the reference plate followed by a 10 minutes incubation and luminescence reading at 0.1 ms. using the PHERAstar FS microplate reader (BMG Labtech).
(§5) After 72 hours incubation, the treated plates were measured in the same way as the day 0 plate mentioned above.
On the technique in general: Cellular ATP, detected with luciferase, serves as a proxy for viable cell number.

Data set [2] concerns SUDHL10. Put plainly: Induction of caspase-3/7 activity (Assay 4), SUDHL10. The following applies: SUDHL10 cells. It counts as cell-based. The method, then:
(§6) Induction of Caspase-3/7 Activity Upon Treatment of Cells with Selected Compounds
In contrast, MCL-1 inhibitors are expected to antagonize this effect leading to an increase in apoptosis, which can be determined by measuring the activity of caspase-3/7.
(§7) The activity of caspase-3/7 was determined in DLBCL (Diffuse large B-cell lymphoma) cell lines (SUDHL5 and SUDHL10) upon treatment with different compounds, using the Caspase-Glo®3/7 reagent from Promega (G8092).
(§8) Rim wells were excluded. The cells were incubated for 3 hours in a humidified incubator at 37° C.
(§9) For the evaluation of the results, the background measured with “medium-only” was subtracted from all other values.

Data set [3] concerns SUDHL5. Put plainly: Induction of cytotoxicity (Assay 6), SUDHL5.
Data set [4] deals with SUDHL5. Put plainly: Induction of caspase-3/7 activity (Assay 4), SUDHL5. It is filed as cell-based. The following applies: SUDHL5 cells. The method, then:
as §6
The BH3-domain of MCL-1 sequesters pro-apoptotic proteins, thereby inhibiting apoptosis. In contrast, MCL-1 inhibitors are expected to antagonize this effect leading to an increase in apoptosis, which can be determined by measuring the activity of caspase-3/7.
as §7, §8, §9

Data set [5] concerns SUDHL10. Briefly: Induction of cytotoxicity (Assay 6), SUDHL10.
The subject of a further data set is AMO-1. Briefly: Antiproliferation assay 7, AMO-1. It counts as cell-based. The following applies: AMO-1 cells, CellTiter-Glo, read-out: Antiproli AMO-1 IC50 median. The protocol: as §1, §2, §3, §4, §5
The next data set deals with MV-4-11. Briefly: Antiproliferation assay 7, MV-4-11. The following applies: MV-4-11 cells, CellTiter-Glo, read-out: Antiproli MV-4-11 IC50 median. It is filed as cell-based. The method, then:
as §1, §2, §3, §4, §5

Setting [6] is: 3 hours, Caspase-Glo 3/7, read-out: Caspase SUDHL10 EC50 (median).
[7] abbreviates: read-out: Cytotox SUDHL5 IC50 (median), SUDHL5 cells, 5 hours, CellTiter-Glo.
Where [8] appears, read: 3 hours, Caspase-Glo 3/7, read-out: Caspase SUDHL5 EC50 (median).
[9] abbreviates: read-out: Cytotox SUDHL10 IC50 (median), SUDHL10 cells, 5 hours, CellTiter-Glo.
Where [10] appears, read: Homo sapiens, SU-DHL10, 3 h, Caspase-Glo 3/7, read-out: Caspase SUDHL10 EC50 (median).
Where [11] appears, read: Homo sapiens, SU-DHL-5, 5 h, read-out: Cytotox SUDHL5 IC50 (median), SUDHL5 cells, 5 hours, CellTiter-Glo.
[12] abbreviates: Homo sapiens, SU-DHL-5, 3 h, Caspase-Glo 3/7, read-out: Caspase SUDHL5 EC50 (median).
[13] abbreviates: Homo sapiens, SU-DHL10, 5 h, read-out: Cytotox SUDHL10 IC50 (median), SUDHL10 cells, 5 hours, CellTiter-Glo.

One may read the IC50 as the concentration at which inhibition is half-maximal. As a reminder, the EC50 is the midpoint of the concentration-response curve.

Counter-ions that a name gives are not always drawn. Like-named read-outs stand apart in the source and are kept apart here.

With `Cc1c2c(nn1C)COCC1CCC1Cn1c(C(=O)O)c(CCCOc3cccc4ccccc34)c3ccc(Cl)c-2c31` (single isomer, unassigned; stereoisomer 2) [Example 64], the IC50 amounted to 4.2 µM with SUDHL5 [1] (72 hours), 2.3 µM in the data set with SUDHL5 [3] (setting [7]), 7.3 µM in the data set with SUDHL10 [5] (setting [9]) and 10.8 µM with AMO-1 (72 hours). In addition, the EC50 with SUDHL10 [2] (setting [6]) was 8.3 µM; with SUDHL5 [4] (setting [8]), 1.8 µM.

As for `Cc1c2c(nn1C)CNCCCn1c(C(=O)O)c(CCCOc3cccc4ccccc34)c3ccc(Cl)c-2c31` (racemic) [Example 28, (rac)-12-chloro-10,11-dimethyl-1-[3-(naphthalen-1-yloxy)propyl]-4,5,6,7,8,10-hexahydropyrazolo[3′,4′:7,8][1,5]diazecino[9,10,1-hi]indole-2-carboxylic Acid-Formic Acid Salt], the IC50 in the data set on SUDHL5 [1] (Homo sapiens, SU-DHL-5, 72 h) amounted to 3 µM; with SUDHL5 [3] (setting [11]) it was 3.3 µM; in the data set on SUDHL10 [5] (setting [13]), 5.6 µM; in the data set with MV-4-11 (Homo sapiens, MV4-11, 72 h), 8.08 µM. Also, the EC50 in the data set with SUDHL10 [2] (setting [10]) amounted to 5.8 µM; with SUDHL5 [4] (setting [12]) it was 2.9 µM.

`CCc1c2c(nn1C)CN(C)CCCCn1c(C(=O)O)c(CCCOc3cccc4ccccc34)c3ccc(Cl)c-2c31` (single isomer, unassigned; enantiomer 2) [Example 24, 4-chloro-3-ethyl-2,14-dimethyl-7-[3-(naphthalen-1-yloxy)propyl]-10,11,12,13,14,15-hexahydro-2H-pyrazolo[3′,4′:8,9][1,6]diazacycloundecino[10,11,1-hi]indole-8-carboxylic Acid (Enantiomer 2)]: the IC50 in the data set on SUDHL5 [1] (72 hours) worked out at 3.4 µM; in the data set on SUDHL5 [3] (setting [7]) it was 4.7 µM; in the data set with SUDHL10 [5] (setting [9]) it was 7.4 µM; in the data set on MV-4-11 (72 hours), 6.72 µM. Moreover, in the data set on SUDHL10 [2] (setting [6]), the EC50 was 10 µM.

Regarding `CCc1nn(C)c2c1-c1c(Cl)ccc3c(CCCOc4cccc5cc(F)ccc45)c(C(=O)O)n(c13)CCCCOC2` (single isomer, unassigned; enantiomer 2) [Example 35, (−)-4-chloro-3-ethyl-7-{3-[(6-fluoronaphthalen-1-yl)oxy]propyl}-1-methyl-1,10,11,12,13,15-hexahydropyrazolo[4′,3′:9,10][1,6]oxazacycloundecino[8,7,6-hi]indole-8-carboxylic Acid (Enantiomer 2)], the IC50 in the data set on SUDHL5 [1] (72 hours) was found to be 6.1 µM; with SUDHL5 [3] (setting [7]) it was 6.3 µM; in the data set on MV-4-11 (72 hours), 8.59 µM; with AMO-1 (72 hours), 13.3 µM. Moreover, the EC50 is 22 µM with SUDHL10 [2] (setting [6]) and 7.6 µM with SUDHL5 [4] (setting [8]).

Consider `CCc1c2c(nn1C)COCCCCn1c(C(=O)O)c(CCCOc3cccc4ccccc34)c3ccc(Cl)c-2c31` (single isomer, unassigned; enantiomer 2) [Example 21, 4-chloro-3-ethyl-2-methyl-7-[3-(naphthalen-1-yloxy)propyl]-2,10,11,12,13,15-hexahydropyrazolo[4′,3′:9,10][1,6]oxazacycloundecino[8,7,6-hi]indole-8-carboxylic Acid (Enantiomer 2)], for which the IC50 in the data set with SUDHL5 [1] (72 hours) came to 3.3 µM; with SUDHL5 [3] (setting [7]) it was 3.7 µM; in the data set with SUDHL10 [5] (setting [9]), 11 µM. In addition, the concentration giving a half-maximal response (EC50) in the data set on SUDHL5 [4] (setting [8]) was 4.6 µM.

Regarding `Cc1c2c(nn1C)COCCCCn1c(C(=O)O)c(CCCOc3cccc4ccccc34)c3ccc(Cl)c-2c31` (single isomer, unassigned; enantiomer 2) [Example 27, 4-chloro-2,3-dimethyl-7-[3-(naphthalen-1-yloxy)propyl]-2,10,11,12,13,15-hexahydropyrazolo-[4′,3′:9,10][1,6]oxazacycloundecino[8,7,6-hi]indole-8-carboxylic acid-N-ethylethanamine Salt (Enantiomer 2)], the IC50 came out at 7.8 µM in the data set with SUDHL5 [1] (72 hours), 10 µM with SUDHL5 [3] (setting [7]), 20 µM in the data set with SUDHL10 [5] (setting [9]) and 16.1 µM in the data set on MV-4-11 (72 hours). Moreover, the EC50 is 23 µM on SUDHL10 [2] (setting [6]) and 16 µM on SUDHL5 [4] (setting [8]).

Turning to `Cc1c2c(nn1C)CN(C)CCCCn1c(C(=O)O)c(CCCOc3cccc4ccccc34)c3ccc(Cl)c-2c31` (single isomer, unassigned; enantiomer 2) [Example 13, (−)-4-chloro-2,3,14-trimethyl-7-[3-(naphthalen-1-yloxy)propyl]-10,11,12,13,14,15-hexahydro-2H-pyrazolo[3′,4′:8,9][1,6]diazacycloundecino[10,11,1-hi]indole-8-carboxylic acid-N-ethylethanamine Salt (Enantiomer 2)], the IC50 was determined as 6.4 µM with SUDHL5 [1] (72 hours), 6.9 µM in the data set with SUDHL5 [3] (setting [7]), 13 µM with SUDHL10 [5] (setting [9]) and 12.2 µM in the data set with MV-4-11 (72 hours). In addition, the EC50 at SUDHL5 [4] (setting [8]) was determined as 10 µM.

Regarding `CCc1nn(C)c2c1-c1c(Cl)ccc3c(CCCOc4cccc5cc(F)ccc45)c(C(=O)O)n(c13)CCCCOC2` (racemic) [Example 33, (rac)-4-chloro-3-ethyl-7-{3-[(6-fluoronaphthalen-1-yl)oxy]propyl}-1-methyl-1,10,11,12,13,15-hexahydropyrazolo[4′,3′:9,10][1,6]oxazacycloundecino[8,7,6-hi]indole-8-carboxylic Acid], the EC50 worked out at 5.7 µM in the data set with SUDHL10 [2] (setting [10]) and 0.67 µM in the data set on SUDHL5 [4] (setting [12]). Further, the IC50 came out at 1 µM in the data set with SUDHL5 [3] (setting [11]); 1.7 µM with MV-4-11 (Homo sapiens, MV4-11, 72 h); 1.58 µM with AMO-1 (Homo sapiens, AMO1, 72 h).

`Cc1c2c(nn1C)CN(C)CCCn1c(C(=O)O)c(CCCOc3cccc4ccccc34)c3ccc(Cl)c-2c31` (racemic) [Example 29, (rac)-12-chloro-7,10,11-trimethyl-1-[3-(naphthalen-1-yloxy)propyl]-4,5,6,7,8,10-hexahydropyrazolo[3′,4′:7,8][1,5]diazecino[9,10,1-hi]indole-2-carboxylic Acid]: the EC50 with SUDHL10 [2] (setting [10]) came out at 3.7 µM; in the data set with SUDHL5 [4] (setting [12]), 1.2 µM. For the same compound, the IC50 came to 3.2 µM in the data set with SUDHL10 [5] (setting [13]) and 2.68 µM in the data set with MV-4-11 (Homo sapiens, MV4-11, 72 h).

Consider `Cc1c2c(nn1C)COCCCCn1c(C(=O)O)c(CCCOc3cccc4cc(F)ccc34)c3ccc(Cl)c-2c31` (single isomer, unassigned; enantiomer 2) [Example 17, (−)-4-chloro-7-{3-[(6-fluoronaphthalen-1-yl)oxy]propyl}-2,3-dimethyl-2,10,11,12,13,15-hexahydropyrazolo[4′,3′:9,10][1,6]oxazacycloundecino[8,7,6-hi]indole-8-carboxylic acid-N-ethylethanamine Salt (Enantiomer 2)], for which the IC50 was 1.5 µM in the data set on SUDHL5 [1] (72 hours), 3.3 µM in the data set with SUDHL5 [3] (setting [7]), 6.7 µM in the data set on MV-4-11 (72 hours) and 8.91 µM in the data set on AMO-1 (72 hours). In addition, the half-maximal effective concentration (EC50) amounted to 5.2 µM at SUDHL10 [2] (setting [6]) and 3.6 µM at SUDHL5 [4] (setting [8]).

Turning to `CCc1c2c(nn1C)N(CCC1CCOCC1)CCCCCn1c(C(=O)O)c(CCCOc3cccc4cc(F)ccc34)c3ccc(Cl)c-2c31` (single isomer, unassigned; enantiomer 2) [Example 82, 4-chloro-3-ethyl-7-{3-[(6-fluoronaphthalen-1-yl)oxy]propyl}-2-methyl-15-[2-(oxan-4-yl)ethyl]-10,11,12,13,14,15-hexahydro-2H-pyrazolo[4′,3′:4,5][1,6]diazacycloundecino[3,2,1-hi]indole-8-carboxylic acid N-ethylethanamine Salt—Enantiomer 2], the IC50 in the data set with SUDHL5 [1] (72 hours) was determined as 7.1 µM; with SUDHL5 [3] (setting [7]), 28 µM; in the data set with SUDHL10 [5] (setting [9]) it was 30 µM. The EC50 with SUDHL10 [2] (setting [6]) turned out to be 23 µM; with SUDHL5 [4] (setting [8]), 24 µM.
